Assay results as given in US9504725B2, “Compositions and functional foods for treating and preventing obesity using polygonum cuspidatum butanol fraction and ethyl acetate fraction” (KOREA INSTITUTE OF ORIENTAL MEDICINE, priority 2009, dated 2016).

Columns and labels:
[1] = Inhibitory effect on short term absorption of lipid emulsions in animals (triglyceride after oral lipid emulsion); assay type: in vivo, male wistar rats
[2] = target: T1, porcine pancreatic lipase (Sus scrofa, UniProt P00591); assay: Inhibition of porcine pancreatic lipase activity (p-NPB hydrolysis); assay type: biochemical
T1 construct: purchased Sigma, St. Louis, Mo., USA
T1 sequence (P00591 1-450): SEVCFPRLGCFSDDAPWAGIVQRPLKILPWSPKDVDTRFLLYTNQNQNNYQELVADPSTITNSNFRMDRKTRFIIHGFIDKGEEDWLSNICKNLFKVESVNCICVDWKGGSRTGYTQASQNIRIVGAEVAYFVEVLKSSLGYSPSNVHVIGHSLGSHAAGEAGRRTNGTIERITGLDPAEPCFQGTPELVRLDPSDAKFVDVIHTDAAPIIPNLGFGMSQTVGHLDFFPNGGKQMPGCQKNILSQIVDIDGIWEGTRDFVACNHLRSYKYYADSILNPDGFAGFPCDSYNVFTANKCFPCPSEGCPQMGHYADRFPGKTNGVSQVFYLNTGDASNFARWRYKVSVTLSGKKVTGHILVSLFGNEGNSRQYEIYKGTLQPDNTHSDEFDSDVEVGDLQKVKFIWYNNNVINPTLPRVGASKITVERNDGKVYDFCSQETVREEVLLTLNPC

[3] = Obesity-preventive effect in high-fat diet-fed mice (body weight, fats, adipocyte size, serum lipids, fatty liver, insulin); assay type: in vivo, male C57BL/6 mice
[4] = high-fat feed mixed with drug (POCU 1%, Xenical 0.1%), 10 weeks

Oc1ccc(/C=C/c2cc(O)cc(O)c2)cc1 [Resveratrol, trans-resveratrol]
Concentration of serum triglyceride ([1]; 10 mg/kg oral with lipid emulsion, 0 h (before administration)): 147.0 ± 4.2 mg/dL
Concentration of serum triglyceride ([1]; 10 mg/kg oral with lipid emulsion, 1 h): 212.5 ± 14.0 mg/dL
Concentration of serum triglyceride ([1]; 10 mg/kg oral with lipid emulsion, 2 h): 219.3 ± 77.3 mg/dL
Concentration of serum triglyceride ([1]; 10 mg/kg oral with lipid emulsion, 3 h): 195.5 ± 25.9 mg/dL
Concentration of serum triglyceride ([1]; 10 mg/kg oral with lipid emulsion, 4 h): 193.2 ± 12.1 mg/dL
Concentration of serum triglyceride ([1]; 50 mg/kg oral with lipid emulsion, 0 h (before administration)): 146.1 ± 1.4 mg/dL
Concentration of serum triglyceride ([1]; 50 mg/kg oral with lipid emulsion, 1 h): 208.3 ± 31.0 mg/dL
Concentration of serum triglyceride ([1]; 50 mg/kg oral with lipid emulsion, 2 h): 228.0 ± 58.4 mg/dL
Concentration of serum triglyceride ([1]; 50 mg/kg oral with lipid emulsion, 3 h): 198.8 ± 62.3 mg/dL
Concentration of serum triglyceride ([1]; 50 mg/kg oral with lipid emulsion, 4 h): 183.7 ± 50.3 mg/dL
Concentration of serum triglyceride ([1]; 250 mg/kg oral with lipid emulsion, 2 h): 228.5 ± 8.4 mg/dL
inhibition at 50 µg/mL ([2]; 50 μg/mL, read-out: Inhibitory effect on pancreatic lipase activity (%)): 32.4 ± 3%
inhibition at 100 µg/mL ([2]; 100 μg/mL, read-out: Inhibitory effect on pancreatic lipase activity (%)): 47.2 ± 1.6%
IC50 ([2]; porcine pancreatic lipase, p-NPB substrate): 543 µM

CCCCCCCCCCC[C@@H](C[C@@H]1OC(=O)[C@H]1CCCCCC)OC(=O)[C@H](CC(C)C)NC=O [Xenical, tetrahydrolipstatin (orlistat)]
Concentration of serum triglyceride ([1]; 200 mg/kg oral with lipid emulsion, 0 h (before administration)): 159.6 ± 19.0 mg/dL
Concentration of serum triglyceride ([1]; 200 mg/kg oral with lipid emulsion, 1 h): 133.7 ± 11.3 mg/dL
Concentration of serum triglyceride ([1]; 200 mg/kg oral with lipid emulsion, 2 h): 124.4 ± 18.0 mg/dL
Concentration of serum triglyceride ([1]; 200 mg/kg oral with lipid emulsion, 3 h): 118.1 ± 24.5 mg/dL
Concentration of serum triglyceride ([1]; 200 mg/kg oral with lipid emulsion, 4 h): 120.9 ± 12.5 mg/dL
adipocyte size ([3]; H&E stained adipose tissue, high-fat diet group 125 μm): 75 μm
gonadal fat weight [3, 4]: 0.17 g
perirenal fat weight [3, 4]: 0.04 g
subcutaneous fat weight [3, 4]: 0.14 g
extent of body weight gain ([3]; high-fat feed mixed with drug, 10 weeks, high-fat diet group 10.9 g): 6.1 g
